The subject of assay [1] is HeLa Cells. The experiment in a line: GFP plasmid transfection with DOTMA/DOPE plus surface ligand peptide, fluorescent plate reader (Example 1). Type of assay: cell-based. As to conditions: DOTMA/DOPE + peptide linked to R12 or K16; EF1Alpha eGFP plasmid; 42 hours.
The subject of the next assay is HuVec Cells. The description is as above. Type of assay: cell-based. As to conditions: DOTMA/DOPE + peptide linked to R12 or K16; EF1Alpha eGFP plasmid; 42 hours. An outline of the steps: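 HuVEC cells in 96 well plates at 70% confluence were transfected with EF1Alpha eGFP plasmid using a 1:1 molar DOTMA/DOPE lipid mixed with a surface ligand peptide carrying a covalently attached nucleic acid binding moiety. Complexes formed for 10 minutes, 0.01 mL went to each well, cells were incubated 42 hours at 37° C., and fluorescence was read on a plate reader.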

The test system of a further assay is Human Fibroblast Cells. The assay is described as above. As to conditions: DOTMA/DOPE + peptide linked to R12 or K16; EF1Alpha eGFP plasmid; 42 hours. Type of assay: cell-based. An outline of the steps: (§1)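 DOTMA/DOPE (1:1 molar) plus peptide bearing a poly-Arg or poly-Lys tag was complexed 10 min with EF1alpha eGFP plasmid in OptiMEM, then added to 70%-confluent cells (0.01 mL fibroblasts; 0.02 mL C2C12, Jurkat). After 42 h at 37 °C, GFP was read by plate reader and compared with DOTMA without ligand.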

A further assay relates to Jurkat Cells. The assay is described as above. Type of assay: cell-based. As to conditions: DOTMA/DOPE + peptide linked to R12 or K16; EF1Alpha eGFP plasmid; 42 hours. The method, boiled down: as §1
Another assay concerns NL-1 iPS Cells. The description is as above. As to conditions: DOTMA/DOPE + peptide linked to R12 or K16; EF1Alpha eGFP plasmid; 42 hours. Type of assay: cell-based.
For the next assay, the system named is C2C12 Cells. The assay is described as above. As to conditions: DOTMA/DOPE + peptide linked to R12 or K16; EF1Alpha eGFP plasmid; 42 hours. Type of assay: cell-based, mouse. An outline of the steps:
as §1

Assay [2] has as its system HeLa Cells. The experiment in a line: GFP transfection with DOTMA/SEQ ID NO: 72 (fusogenic peptide)/peptide compared with Lipofectamine 2000. Type of assay: cell-based. The method, boiled down: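 DOTMA/DOPE (1:1 molar) lipid mixed with polyarginine- or polylysine-tagged cell-surface-ligand peptide, complexed 10 min with EF1alpha eGFP plasmid at 10 μg/mL in OptiMEM, fusogenic peptide at 0.1 mg/mL final; HeLa cells ~70% confluent given 0.01 mL complex. GFP read by fluorescence plate reader and microscopy (% cells transfected) after 42 h at 37° C; Lipofectamine 2000 as comparator.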

Another assay relates to some examined cell types. The assay can be described thus: Summary of Example 1: transfection expression and % cells transfected over the no peptide control. Type of assay: cell-based. As to conditions: on some examined cell types. An outline of the steps: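 Cells at 70% confluence received DNA complexes of EF1Alpha eGFP plasmid with DOTMA/DOPE (1:1) plus oligo-Arg- or oligo-Lys-tagged peptide ligands, formed 10 min at room temperature. After 42 h at 37 °C, 5% CO2, GFP read by plate reader and % transfected cells judged microscopically, relative to lipid without peptide.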

The mark [3] stands for this setting: 0.1 μL of DOTMA/SEQ ID NO: 72/Peptide in well of a 96 well plate.
[4] abbreviates: 0.2 μL of DOTMA/SEQ ID NO: 72/Peptide in well of a 96 well plate.
Setting [5] is: 0.3 μL of DOTMA/SEQ ID NO: 72/Peptide in well of a 96 well plate.
Setting [6] is: 0.4 μL of DOTMA/SEQ ID NO: 72/Peptide in well of a 96 well plate.

With 336 (GEFYFDLRLKGDK) [compound 336], the “Relative Fluorescence of Transfection of HeLa Cells (RF)” value in the assay on HeLa Cells [1] was found to be 25262. Further, in the assay with HuVec Cells, the “Relative Fluorescence of Transfection of HuVec Cells (RF)” value is on record as 5366. Further, the “Relative Fluorescence of Transfection of Human Fibroblast Cells (RF)” value with Human Fibroblast Cells was determined as 10449. Further, the “Relative Fluorescence of Transfection of Jurkat Cells (RF)” value in the assay with Jurkat Cells came to 4813. Also, the “Relative Fluorescence of Transfection of NL-1 iPS Cells (RF)” value with NL-1 iPS Cells stood at 14875. Also, the “Relative Fluorescence of Transfection of C2C12 Cells (RF)” value in the assay with C2C12 Cells is 9647. Moreover, the “Relative Fluorescence DOTMA/SEQ ID NO: 72/Peptide, HeLa Cells (RF)” value (from here on “Relative Fluorescence DOTMA/SEQ ID NO”) with HeLa Cells [2] (setting [3]) stood at 14442; in the assay with HeLa Cells [2] (setting [4]) it was 16702; in the assay with HeLa Cells [2] (setting [5]) it was 13434; with HeLa Cells [2] (setting [6]), 11334. In addition, the “transfection expression and % cells transfected over the no peptide control” value in the assay on some examined cell types was “increased transfection expression and the % cells transfected”.
As for 365 (ISRCQVCMKKRH) [compound 365], the “Relative Fluorescence of Transfection of HeLa Cells (RF)” value in the assay with HeLa Cells [1] was 36093. Moreover, the “Relative Fluorescence of Transfection of HuVec Cells (RF)” value in the assay on HuVec Cells is listed as 14764. For the same substance, in the assay with Human Fibroblast Cells, the “Relative Fluorescence of Transfection of Human Fibroblast Cells (RF)” value was 5219. Moreover, in the assay on Jurkat Cells, the “Relative Fluorescence of Transfection of Jurkat Cells (RF)” value is 5298. Moreover, the “Relative Fluorescence of Transfection of NL-1 iPS Cells (RF)” value in the assay with NL-1 iPS Cells came out at 6364. In the assay with C2C12 Cells, the “Relative Fluorescence of Transfection of C2C12 Cells (RF)” value was 5390. Moreover, the “Relative Fluorescence DOTMA/SEQ ID NO” value is on record as 26620 in the assay on HeLa Cells [2] (setting [3]), 43775 in the assay with HeLa Cells [2] (setting [4]), 36054 in the assay on HeLa Cells [2] (setting [5]) and 21540 in the assay on HeLa Cells [2] (setting [6]). For the same substance, the “transfection expression and % cells transfected over the no peptide control” value with some examined cell types is “increased transfection expression and the % cells transfected”.
355 (FRHRNRKGY) [compound 355]: the “Relative Fluorescence of Transfection of HeLa Cells (RF)” value in the assay on HeLa Cells [1] came to 32628. For the same substance, the “Relative Fluorescence of Transfection of HuVec Cells (RF)” value in the assay on HuVec Cells was 14810. Moreover, the “Relative Fluorescence of Transfection of Human Fibroblast Cells (RF)” value in the assay on Human Fibroblast Cells was found to be 6821. Also, in the assay on Jurkat Cells, the “Relative Fluorescence of Transfection of Jurkat Cells (RF)” value is given as 8132. The “Relative Fluorescence of Transfection of NL-1 iPS Cells (RF)” value in the assay on NL-1 iPS Cells is recorded as 7910. In addition, in the assay with C2C12 Cells, the “Relative Fluorescence of Transfection of C2C12 Cells (RF)” value is reported as 1900. Also, the “Relative Fluorescence DOTMA/SEQ ID NO” value in the assay on HeLa Cells [2] (setting [3]) amounted to 18362; in the assay on HeLa Cells [2] (setting [4]), 27990; with HeLa Cells [2] (setting [5]) it was 22367; in the assay with HeLa Cells [2] (setting [6]) it was 18289. The “transfection expression and % cells transfected over the no peptide control” value with some examined cell types was “increased transfection expression and the % cells transfected”.
On to “358 (GHRGPTGRPGKRGKQGQKGDS) [compound 358]”, for which, in the assay with HeLa Cells [1], the “Relative Fluorescence of Transfection of HeLa Cells (RF)” value is 15132. Also, the “Relative Fluorescence of Transfection of HuVec Cells (RF)” value in the assay with HuVec Cells worked out at 25398. The “Relative Fluorescence of Transfection of Human Fibroblast Cells (RF)” value with Human Fibroblast Cells stood at 5665. Further, the “Relative Fluorescence of Transfection of Jurkat Cells (RF)” value in the assay on Jurkat Cells was determined as 18820. Also, the “Relative Fluorescence of Transfection of NL-1 iPS Cells (RF)” value with NL-1 iPS Cells turned out to be 21956. Besides, in the assay with C2C12 Cells, the “Relative Fluorescence of Transfection of C2C12 Cells (RF)” value worked out at 2271. In addition, the “Relative Fluorescence DOTMA/SEQ ID NO” value in the assay with HeLa Cells [2] (setting [3]) is given as 12331; in the assay on HeLa Cells [2] (setting [4]), 12683; in the assay with HeLa Cells [2] (setting [5]), 13686; with HeLa Cells [2] (setting [6]), 11097. The “transfection expression and % cells transfected over the no peptide control” value in the assay with some examined cell types was “increased transfection expression and the % cells transfected”.
In the case of 454 (TGLSCLQRFTTM) [compound 454], in the assay on HeLa Cells [1], the “Relative Fluorescence of Transfection of HeLa Cells (RF)” value worked out at 34550. The “Relative Fluorescence of Transfection of HuVec Cells (RF)” value in the assay on HuVec Cells was determined as 13336. Moreover, the “Relative Fluorescence of Transfection of Human Fibroblast Cells (RF)” value with Human Fibroblast Cells is on record as 7568. Further, the “Relative Fluorescence of Transfection of Jurkat Cells (RF)” value in the assay with Jurkat Cells came to 8224. Moreover, the “Relative Fluorescence of Transfection of NL-1 iPS Cells (RF)” value with NL-1 iPS Cells is reported as 18100. In addition, the “Relative Fluorescence of Transfection of C2C12 Cells (RF)” value in the assay with C2C12 Cells came out at 9280. Further, the “Relative Fluorescence DOTMA/SEQ ID NO” value in the assay with HeLa Cells [2] (setting [3]) came to 34033; in the assay with HeLa Cells [2] (setting [4]), 37099; with HeLa Cells [2] (setting [5]), 27412; in the assay on HeLa Cells [2] (setting [6]), 16023. Also, the “transfection expression and % cells transfected over the no peptide control” value in the assay with some examined cell types is “increased transfection expression and the % cells transfected”.
On to 268 (GGFLKYTVSYDI) [compound 268], for which, in the assay with HeLa Cells [1], the “Relative Fluorescence of Transfection of HeLa Cells (RF)” value was determined as 25885. Besides, the “Relative Fluorescence of Transfection of HuVec Cells (RF)” value in the assay on HuVec Cells came to 5403. For the same substance, the “Relative Fluorescence of Transfection of Human Fibroblast Cells (RF)” value with Human Fibroblast Cells worked out at 4568. Also, the “Relative Fluorescence of Transfection of Jurkat Cells (RF)” value in the assay on Jurkat Cells turned out to be 3236. Moreover, the “Relative Fluorescence of Transfection of NL-1 iPS Cells (RF)” value in the assay on NL-1 iPS Cells was 15697. Moreover, the “Relative Fluorescence of Transfection of C2C12 Cells (RF)” value in the assay on C2C12 Cells turned out to be 2568. In addition, the “Relative Fluorescence DOTMA/SEQ ID NO” value in the assay with HeLa Cells [2] (setting [3]) is recorded as 10162; with HeLa Cells [2] (setting [4]), 9934; in the assay with HeLa Cells [2] (setting [5]) it was 10792; in the assay on HeLa Cells [2] (setting [6]), 9519. Besides, in the assay with some examined cell types, the “transfection expression and % cells transfected over the no peptide control” value was “increased transfection expression and the % cells transfected”.
381 (TAGSCL) [compound 381]: the “Relative Fluorescence of Transfection of HeLa Cells (RF)” value in the assay with HeLa Cells [1] was 22652. The “Relative Fluorescence of Transfection of HuVec Cells (RF)” value in the assay with HuVec Cells is on record as 17542. In addition, in the assay with Human Fibroblast Cells, the “Relative Fluorescence of Transfection of Human Fibroblast Cells (RF)” value was found to be 9953. Further, the “Relative Fluorescence of Transfection of Jurkat Cells (RF)” value in the assay on Jurkat Cells was determined as 10806. Also, the “Relative Fluorescence of Transfection of NL-1 iPS Cells (RF)” value with NL-1 iPS Cells was 9644. In the assay with C2C12 Cells, the “Relative Fluorescence of Transfection of C2C12 Cells (RF)” value is 8834. In addition, the “Relative Fluorescence DOTMA/SEQ ID NO” value is listed as 34187 in the assay on HeLa Cells [2] (setting [3]), 37463 in the assay on HeLa Cells [2] (setting [4]), 27007 with HeLa Cells [2] (setting [5]) and 20088 with HeLa Cells [2] (setting [6]). Moreover, in the assay on some examined cell types, the “transfection expression and % cells transfected over the no peptide control” value is “increased transfection expression and the % cells transfected”.
Regarding “452 (CNYYSNSYSFWLASLNPER) [compound 452]”, the “Relative Fluorescence of Transfection of HeLa Cells (RF)” value with HeLa Cells [1] was determined as 13888. Besides, the “Relative Fluorescence of Transfection of HuVec Cells (RF)” value with HuVec Cells is on record as 1841. Also, the “Relative Fluorescence of Transfection of Human Fibroblast Cells (RF)” value with Human Fibroblast Cells worked out at 2779. In addition, the “Relative Fluorescence of Transfection of Jurkat Cells (RF)” value with Jurkat Cells is reported as 2554. For the same substance, the “Relative Fluorescence of Transfection of NL-1 iPS Cells (RF)” value with NL-1 iPS Cells turned out to be 10349. For the same substance, the “Relative Fluorescence of Transfection of C2C12 Cells (RF)” value with C2C12 Cells was determined as 21798. In addition, the “Relative Fluorescence DOTMA/SEQ ID NO” value amounted to 6276 in the assay on HeLa Cells [2] (setting [3]), 12671 in the assay with HeLa Cells [2] (setting [4]), 12047 in the assay on HeLa Cells [2] (setting [5]) and 10918 in the assay with HeLa Cells [2] (setting [6]). Moreover, in the assay with some examined cell types, the “transfection expression and % cells transfected over the no peptide control” value was “increased transfection expression and the % cells transfected”.

These data come from US20250154525A1, “PLANT VIRUS MOVEMENT PROTEINS AND METHODS OF USING SAME” (Molecular Transfer, Inc., priority 2016, published 2025).
